Measurements reported in the NIST ThermoML archive (doi:10.1021/acs.jced.5b00049).

Conditions: Liquid, Buoyancy - hydrostatic balance with magnetic suspension - one sinker

CCCCCCCCCCCCCC [tetradecane]
Conditions | mass density [kg/m3]
313.13 K, 16040 kPa | 760.35
313.15 K, 14050 kPa | 759.03
313.15 K, 18060 kPa | 761.65
313.17 K, 19040 kPa | 762.28
313.19 K, 10020 kPa | 756.25
313.23 K, 12040 kPa | 757.62
323.14 K, 14050 kPa | 752.38
323.18 K, 12040 kPa | 750.93
323.18 K, 16070 kPa | 753.74
323.23 K, 18060 kPa | 755.07
323.25 K, 19080 kPa | 755.76
323.26 K, 10000 kPa | 749.44
333.13 K, 18050 kPa | 748.61
333.13 K, 19060 kPa | 749.31
333.14 K, 10050 kPa | 742.64
333.16 K, 12040 kPa | 744.14
333.16 K, 16060 kPa | 747.18
333.28 K, 14060 kPa | 745.66
343.31 K, 16030 kPa | 740.68
343.31 K, 19040 kPa | 742.92
343.32 K, 10040 kPa | 736
343.32 K, 12050 kPa | 737.59
343.34 K, 18020 kPa | 742.16
343.35 K, 14070 kPa | 739.16
353.48 K, 16030 kPa | 734.17
353.5 K, 18010 kPa | 735.7
353.51 K, 19050 kPa | 736.41
353.58 K, 12050 kPa | 730.83
353.63 K, 10020 kPa | 729.05
353.66 K, 14040 kPa | 732.42
